Measurements taken from patent US8796302B2 (priority 2004, dated 2014).

Legend:
Format in all cases: cell-based, rat
[1] = tested on: NO; test: NO production (nitrite, Griess reagent) after LPS; settings: for LPS-stimulated NO production (nitrite): 24 after LPS 20 ng/ml
Procedure: (§1) Different pro-inflammatory factors that are released from microglia were also monitored. The production of NO was determined by measuring the accumulated levels of nitrite in the supernatant with the Griess reagent, and release of TNFα was measured with a rat TNFα enzyme-linked immunosorbent assay kit from R & D System (Minneapolis, Minn.).
The cultures were prepared as in Example 1 and were first treated with LPS 20 ng/ml or vehicle; 12 hours later the LPS was removed and the cultures were treated with 10^−5 M, 10^−10M, and 10^−14M DM. Twenty four hours later, nitrite oxide and PGE2 production were assessed as in Example 5. The results are expressed as a percentage of LPS treated culture and are the mean±S.E.M of four and three experiments with triplicates in each experiment. *, p<0.05 compared with the LPS-treated culture. ###, P<0.001 compared with the control culture.
Production of nitric oxide (NO) was determined in the mesencephalic neuron-glia cultures, following pretreatment and LPS stimulation as described above, by measuring the accumulated levels of nitrite in the supernatant with Griess reagent. Accumulation of nitrite, an indicator of LPS-stimulated production of NO, was determined 24 after LPS stimulation.

[2] = tested on: dopaminergic neurons in mesencephalic neuron-enriched cultures; test: [3H]DA uptake in Aβ- or MPP+-treated neuron-enriched cultures
Procedure: Neuron-enriched culture were prepared from the ventral mesencephalic tissues of embryonic day 13-14 Fisher F344 rats (Charles River Laboratories, Raleigh, N.C.) as follows. Dissociated cells were seeded at 1×10^5/well in 96-well and 5×10^5/well to poly-D-lysine-coated 96-well and 24-well plates, respectively. Glial proliferation was suppressed by the inclusion of cytosine β-D-arabinocide (5-10 μM). Seven day old cultures were used for treatment, which were composed of 91% neurons, 9% astrocytes, and <0.1% microglia. The cultures were pre-treated with OM, 10^−5 M, 10^−10 M, and 10^−14M DM 30 minutes before treatment with vehicle alone, 4 μM Aβ or 0.5 μM MPP^+5 as in Example 1. DA uptake was also measured as in Example 1 and the results are expressed in both FIGS. 4A and B as a percentage of the control cultures and are the mean±S.E.M. of four individual experiments with triplicates in each experiment. […]
Neuron-enriched cultures seeded in 24-well culture plates were pretreated for 48 hours with 0.6 mM VPA followed by treatment with 0.5 μM MPP^+. [^3H]DA uptake was measured 7 days after MPP^+ treatment according to procedures described in Example 1. Results are expressed as mean±SEM of percentage of vehicle control from three independent experiments performed in duplicate. *,p<0.05 compared with vehicle-treated cultures. †, p<0.05 compared with corresponding MPP^+-treated cultures.

[3] = tested on: TNFα; test: TNFα release (ELISA) after LPS
Procedure: as §1
Mesencephalic neuron-glia cultures were pretreated with VPA or vehicle control for 48 hours prior to stimulation with 20 ng/ml LPS. The release of TNF-α was determined 3 hours after LPS treatment. The release of TNFα, was measured with a rat TNFα enzyme-linked immunosorbent assay kit from R & D System (Minneapolis, Minn.).

[4] = tested on: microglia in neuron-glia cultures; test: OX-42 immunostaining of LPS-induced microglial activation; settings: for LPS-induced activation of microglia (OX-42): LPS 5 ng/ml, 12 h
Procedure: Dopaminergic neurons were recognized with the anti-TH antibody and microglia were detected with the OX-42 antibody, which recognizes the CR3 receptor. This was accomplished as follows: 3.7% formaldehyde-fixed cultures were treated with 1% hydrogen peroxide for about 10 minutes followed by sequential incubation with a blocking solution (30 min), primary antibody (overnight, 4° C.), biotinylated secondary antibody (2 hours), and ABC reagents (40 min). The color was developed with 3,3′-diaminobenzidine.
Neuron-glia cultures were prepared and treated with vehicle, LPS (5 ng/ml), or LPS plus DM respectively as in Example 1. Twelve hours later, cultures were immunostained with anti-OX-42 antibody. Images shown are representative of three separate experiments. The immunostaining and morphological analysis was accomplished as in Example 2.
Mesencephalic neuron-glia cultures were pretreated with VPA for 48 h and then treated with 20 ng/ml LPS for 72 h, as described in Example 19. Immunostaining with an antibody against OX-42 was then performed, as described in Example 19.

[5] = tested on: intracellular reactive oxygen species; test: Intracellular ROS (DCFH oxidation) after LPS
Procedure: The production of intracellular reactive oxygen species was measured by DCFH oxidation. The DCFH-DA (Molecular Probes, Eugene, Oreg.) reagent passively diffuses into cells in which it is hydrolyzed by intracellular esterase to liberate 2′-7′-dichlorofluoressein which, during reaction with oxidizing species, yields a highly fluorescent compound 2′-7′-dichlorofluorescein (DCF) that is trapped inside the cell. For each measurement, a fresh stock solution of CM-H2-DCFDA (5 mM) was prepared in dimethylsulfoxide. CM-H2-DCFDA, diluted to a final concentration of 1 μM in phenol red-free HBSS containing 2% FBS and 2% HS, was added to cultures and incubated for about 30 min at about 37° C. After washing two times with warm HBSS, vehicle or stimulators in HBSS were added to cultures. After incubation for about 30 min at about 37° C., fluorescence intensity was measured at 485 nm for excitation and 530 nm for emission using a SpectraMax Gemini XS fluorescence microplate reader (Molecular Devices).
The data are expressed as the percent of the control cultures and are the mean±SEM of three experiments performed in triplicate. *P<0.05, **P<0.01, compared to control.
Assay of intracellular ROS is performed as follows. 5-(and −6)-Chloromethyl-2′,7′-dichlorodihydrofluorescein diacetate (CM-H2-DCFDA) (Molecular Probes, Eugene, Oreg.), a chloromethyl derivative of H2-DCFDA, passively diffuses into cells in which it is hydrolyzed by intracellular esterases to liberate 2′-7′-dichlorofluorescein (DCF) which, during reaction with oxidizing species, yields a highly fluorescent compound that is trapped inside the cell. […] Cells were seeded at 1×10^5/well in 96-well plates for one day followed by treatment with 0.6 mM or 1.2 mM VPA for 24 h. The cultures were used for the assay of intracellular ROS.
After washing two times with warm Hank's balanced salt solution (HBSS), CM-H2-DCFDA, diluted to a final concentration of 1 μM in phenol red-free HBSS, was added to cultures and incubated for 30 min at 37° C. Then cultures were added with 0.6 or 1.2 mM VPA in HBSS again for 30 min and followed the treatment with 100 ng/ml LPS for 2 hours at 37° C., fluorescence intensity was measured at 485 nm for excitation and 530 nm for emission using a SpectraMax Gemini XS fluorescence microplate reader (Molecular Devices, Sunnyvale, Calif.).

[6] = DM 10^−5 M and 10^−14 M pretreatment

Row | Compound | LPS-induced increase in the release of NO [1, 6] | LPS-induced increase in the release of NO ([1]; DM 10^−10 M pretreatment) | NO production, post treatment ([1]; femtomolar DM after removal of LPS (20 ng/ml, 12 h), 24 h) | Aβ (1-42)-induced reduction of DA uptake ([2]; DM 10^−5, 10^−10, 10^−14 M, Aβ (1-42) 4 μM, 9 days, neuron-enriched) | LPS-induced increase in the release of TNFα [3, 6] | LPS-induced increase in the release of TNFα ([3]; DM 10^−10 M pretreatment) | LPS-induced activation of microglia (OX-42) ([4]; DM 10^−5 M and 10^−14 M) | LPS-induced activation of microglia (OX-42) ([4]; DM 10^−10 M) | LPS-induced increase in intracellular reactive oxygen species [5, 6] | LPS-induced increase in intracellular reactive oxygen species ([5]; DM 10^−10 M pretreatment) | LPS-stimulated NO production (nitrite) ([1]; VPA 0.4 mM pretreatment) | LPS-stimulated NO production (nitrite) ([1]; VPA 0.6 mM pretreatment) | MPP+-induced degeneration of DA neurons (DA uptake) ([2]; VPA 0.6 mM, 48 hours pretreatment, MPP+ 0.5 μM, 7 days) | LPS-induced TNFα production ([3]; VPA 0.2 mM, 48 h pretreatment, 3 h after LPS 20 ng/ml) | LPS-induced production of TNFα ([3]; VPA 0.4 or 0.6 mM, 48 h pretreatment, 3 h after LPS 20 ng/ml) | LPS-stimulated activation of microglia (OX-42) ([4]; VPA 0.4 or 0.6 mM, 48 h pretreatment, LPS 20 ng/ml 72 h) | microglia activation (OX-42), VPA alone ([4]; VPA alone) | LPS-induced increase of iROS level ([5]; VPA 0.6 or 1.2 mM pretreatment, enriched microglia, LPS 100 ng/ml 2 h) | basal iROS levels ([5]; VPA alone 0.6 mM, enriched microglia)
1 | COc1ccc2c(c1)[C@@]13CCCC[C@H]1[C@@H](C2)N(C)CC3 [DM, d-3-methoxy-N-methylmorphinan] | significantly decreased | no significant reduction | reduction of NO and PGE2 production | did not significantly alter | significantly decreased | no significant reduction | prevented the LPS-induced activation of microglia | didn't significantly inhibit microglia activation | significantly decreased | no significant reduction |  |  |  |  |  |  |  |  | 
2 | CCCC(CCC)C(=O)O [VPA, Valproic acid] |  |  |  |  |  |  |  |  |  |  | 54 % of the control | 78 % of the control | blocked | significant inhibited | completely blocked | suppressed | did not show significant effects on microglia activation | completely blocked | reduced basal iROS levels
